In the experiment the target is T1, PinD6 (PinDes6, delta-6 desaturase) (Phytophthora infestans, UniProt A0A833SQW7).
T1 construct: gene GN244_ATG16356

For `CCCCC/C=C\C/C=C\CCCCCCCC(=O)O` [LA], the “GC of fatty acid methyl esters from fed yeast” value is “WT-PinD6 can convert LA and ALA to GLA and SDA”.
The result for `CC/C=C\C/C=C\C/C=C\CCCCCCCC(=O)O` [ALA, α-linolenic acid] reads “WT-PinD6 can convert LA and ALA to GLA and SDA”.

These data come from article PMC4951033, “Elevation of the Yields of Very Long Chain Polyunsaturated Fatty Acids via Minimal Codon Optimization of Two Key Biosynthetic Enzymes” (PLoS ONE, 2016).
